Reference: patent US20250154174A1, “BICYCLIC HETEROCYCLES AS MRGPRX2 ANTAGONISTS” (Incyte Corporation, priority 2023, published 2025)

What was measured:
[1] = target: T1, MRGPRX2 (Homo sapiens, UniProt Q96LB1); assay: MRGPRX2 FLIPR calcium mobilization assay; format: cell-based; parameters: host or cells: CHO-K1; conditions: CHO-K1 cells stably expressing human MRGPRX2; agonist Cortistatin-14 at EC80; Ca2+ release
T1 sequence (Q96LB1 1-330): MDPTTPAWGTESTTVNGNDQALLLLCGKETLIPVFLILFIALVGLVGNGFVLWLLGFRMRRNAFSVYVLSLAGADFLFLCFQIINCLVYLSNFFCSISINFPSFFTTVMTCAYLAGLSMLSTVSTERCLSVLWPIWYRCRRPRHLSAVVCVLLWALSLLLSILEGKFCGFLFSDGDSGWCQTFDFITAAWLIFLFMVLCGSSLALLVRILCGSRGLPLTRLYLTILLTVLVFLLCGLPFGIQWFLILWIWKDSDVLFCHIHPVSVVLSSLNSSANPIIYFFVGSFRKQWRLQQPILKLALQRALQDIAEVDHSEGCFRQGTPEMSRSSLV
Method: Chinese hamster ovary (CHO-K1) cells stably expressing human MRGPRX2 were purchased from Genescript (Piscataway, NJ). The cells were maintained in culture medium (Ham's F-12K) containing 10% (v/v) FBS, 200 μg/mL Zeocin, 100 units/mL penicillin G and 100 μg/mL streptomycin (Life Technologies, Carlsbad, CA). For the assay, the cells were harvested and resuspended with culture medium without Zeocin before plating at 8000 cells per well in 20 μL in 384-well black clear bottom cell culture plates (VWR, Radnor, PA). After 24 h culture at 37° C. and 5% CO2, the cells were loaded with 20 μL/well of calcium dye (FLIPR Calcium 6 Assay Kit, Molecular Devices, San Jose, CA) diluted in loading buffer (1× Hank's Balanced Salt Solution (HBSS), 5 mM probenecid, 20 mM 4-(2-hydroxyethyl)-1-piperazineethanesulfonic acid (HEPES), pH 7.4, VWR, Radnor, PA) followed with 45 min. incubation at 37° C. and 40 min. at r.t. in the dark. Cells were then treated with the addition of 10 uL/well test compounds with a range of increasing concentrations diluted in the assay buffer (1×HBSS, 20 mM HEPES, pH 7.4, VWR, Radnor, PA) with FLIPR Penta (Molecular Devices. San Jose, CA) and incubated for 30 min. at r.t. Ca^2+ release was measured with FLIPR Penta with 10 s basal fluorescence measurement, then 12.5 μL of 5× agonist Cortistatin-14 (Tocris, Minneapolis, MN) at final concentration corresponding to the EC80 were added followed with continued fluorescence signal monitoring for an additional 110 s. The base line adjusted (median of first 10s base line) max value of the Relative Fluorescence Unit (RFU) was plotted against compound concentrations. Wells with no compound were served as the positive controls, and wells with high concentration of reference antagonist were used as negative controls. IC50 curves were globally fitted with 3- or 4-parameter Hill equation in a Genedata Screener (Genedata Basel, Switzerland).

[2] = target: T1, MRGPRX2; assay: MRGPRX2 IP1 HTRF assay; format: cell-based; parameters: host or cells: CHO-K1; conditions: CHO-K1 cells stably expressing human MRGPRX2; agonist Cortistatin 14 1 μM; IP1 accumulation
Method: This assay measures compound inhibition of myo-Inositol 1 phosphate (IP1) accumulation in CHO-K1 cells. Chinese hamster ovary (CHO-K1) cells stably expressing human MRGPRX2 were purchased from GenScript (Piscataway, NJ).
For the HTRF IP1 determination, an IP-One GqKit (Perkin Elmer Cisbio, Waltham, MA), which includes all reagents and buffers in this protocol, was used. The cells were maintained in culture medium (Ham's F-12K) containing 10% (v/v) FBS, and 200 μg/mL Zeocin. For the assay, the cells were harvested and resuspended in culture medium with 2% FBS and without Zeocin, then were passed through a 40 μm filter. Cells were added at 20000 cells in a 5 μL/well to a 384-well white small volume cell culture plate (Greiner VWR, Radnor, PA) which contained 50 nL/well of test compound serially diluted at a selected concentration range in DMSO. 5 μL/well of prepared 2× Stimulation Buffer2 was then added to plates and was incubated at 37° C. with 5% CO2 for 1 h. 5 μL/well of agonist Cortistatin 14 (Bio-TechneR&D Systems, Minneapolis, MN) in 1×Stimulation Buffer 2, for a 1 μM final concentration, was then added to plates and incubated at 37° C. with 5% CO2 for 1 h. 6 μL/well of 1:20 diluted Detection Reagent Mix (d2 and Cryptate) was added to the plates and incubated for 1 h in the dark. Plates were read on the PHERAstar microplate reader (BMG Labtech Cary, NC) to determine the HTRF ratio of the acceptor and donor emission signals. The IP1 concentrations were calculated from a standard curve following the IP-One GQ kit instructions. Wells with DMSO only and wells with high concentration of reference antagonist were used as controls for normalization. Compound IC50 curves were globally fitted with 3- or 4-parameter Hill equation in a Genedata Screener (Genedata Basel, Switzerland).

Cn1cnc2ccnc(N[C@@H]3CCC[C@H](Nc4cccc5nc(C(F)(F)F)cn45)C3)c21 [Example 1, (1R,3S)—N^1-(3-Methyl-3H-imidazo[4,5-c]pyridin-4-yl)-N^3-(2-(trifluoromethyl)imidazo[1,2-a]pyridin-5-yl)cyclohexane-1,3-diamine]
IC50 [1]: 100 to 1000 nM | IC50 [2]: 100 to 1000 nM

Cn1cnc2ccnc(N[C@H]3CC[C@@H](Nc4cccc5nc(C(F)(F)F)cn45)CC3)c21 [Example 2, (1s,4s)-N^1-(3-Methyl-3H-imidazo[4,5-c]pyridin-4-yl)-N^4-(2-(trifluoromethyl)imidazo[1,2-a]pyridin-5-yl)cyclohexane-1,4-diamine]
IC50 [1]: 0.1 to 100 nM | IC50 [2]: 100 to 1000 nM

FC(F)(F)c1cn2c(N[C@H]3CCC[C@@H](Nc4nccn5cncc45)C3)cccc2n1 [Example 4, (1R,3S)—N^1-(Imidazo[1,5-a]pyrazin-8-yl)-N^3-(2-(trifluoromethyl)imidazo[1,2-a]pyridin-5-yl)cyclohexane-1,3-diamine]
IC50 [1]: 0.1 to 100 nM | IC50 [2]: 100 to 1000 nM

Cc1cc2nc(C(F)(F)F)cc(N[C@H]3CCC[C@@H](Nc4nccc5ncn(C)c45)C3)n2n1 [Example 6, (1R,3S)—N^1-(3-Methyl-3H-imidazo[4,5-c]pyridin-4-yl)-N^3-(2-methyl-5-(trifluoromethyl)pyrazolo[1,5-a]pyrimidin-7-yl)cyclohexane-1,3-diamine]
IC50 [1]: 100 to 1000 nM

Cc1cc2nc(C(F)(F)F)cc(N[C@H]3CCC[C@@H](Nc4nccc5ncccc45)C3)n2n1 [Example 7, (1S,3R)—N^1-(2-Methyl-5-(trifluoromethyl)pyrazolo[1,5-a]pyrimidin-7-yl)-N^3-(1,6-naphthyridin-5-yl)cyclohexane-1,3-diamine]
IC50 [1]: 0.1 to 100 nM | IC50 [2]: 100 to 1000 nM

FC(F)(F)c1cc(N[C@H]2CCC[C@@H](Nc3nccn4nccc34)C2)n2nc(Br)cc2n1 [Example 8, (1S,3R)—N^1-(2-Bromo-5-(trifluoromethyl)pyrazolo[1,5-a]pyrimidin-7-yl)-N^3-(pyrazolo[1,5-a]pyrazin-4-yl)cyclohexane-1,3-diamine]
IC50 [1]: 0.1 to 100 nM | IC50 [2]: 100 to 1000 nM

FC(F)(F)c1cc(N[C@H]2CCC[C@@H](Nc3nccc4ncccc34)C2)n2nc(Br)cc2n1 [Example 9, (1S,3R)—N^1-(2-Bromo-5-(trifluoromethyl)pyrazolo[1,5-a]pyrimidin-7-yl)-N^3-(1,6-naphthyridin-5-yl)cyclohexane-1,3-diamine]
IC50 [1]: 0.1 to 100 nM | IC50 [2]: 0.1 to 100 nM

FC(F)(F)c1cc(N[C@H]2CCC[C@@H](Nc3nnc4ccccn34)C2)n2nc(Br)cc2n1 [Example 10, (1R,3S)—N^1—([1,2,4]Triazolo[4,3-a]pyridin-3-yl)-N^3-(2-bromo-5-(trifluoromethyl)pyrazolo[1,5-a]pyrimidin-7-yl)cyclohexane-1,3-diamine]
IC50 [1]: 0.1 to 100 nM | IC50 [2]: 100 to 1000 nM

FC(F)(F)c1cc(N[C@H]2CCC[C@@H](Nc3nccc4ncccc34)C2)n2nc(C(F)(F)F)cc2n1 [Example 11, (1S,3R)—N^1-(2,5-Bis(trifluoromethyl)pyrazolo[1,5-a]pyrimidin-7-yl)-N^3-(1,6-naphthyridin-5-yl)cyclohexane-1,3-diamine]
IC50 [1]: 0.1 to 100 nM | IC50 [2]: 0.1 to 100 nM

FC(F)(F)c1cc(N[C@H]2CCC[C@@H](Nc3nccn4cncc34)C2)n2nc(Br)cc2n1 [Example 12, (1S,3R)—N^1-(2-Bromo-5-(trifluoromethyl)pyrazolo[1,5-a]pyrimidin-7-yl)-N^3-(imidazo[1,5-a]pyrazin-8-yl)cyclohexane-1,3-diamine]
IC50 [1]: 0.1 to 100 nM | IC50 [2]: 100 to 1000 nM

Cn1cnc2ccnc(N[C@@H]3CCC[C@H](Nc4cc(C(F)(F)F)nc5cc(Br)nn45)C3)c21 [Example 13, (1S,3R)—N^1-(2-Bromo-5-(trifluoromethyl)pyrazolo[1,5-a]pyrimidin-7-yl)-N^3-(3-methyl-3H-imidazo[4,5-c]pyridin-4-yl)cyclohexane-1,3-diamine]
IC50 [1]: 0.1 to 100 nM | IC50 [2]: 100 to 1000 nM

FC(F)(F)c1cc(N[C@H]2CCC[C@@H](Nc3nccn4cncc34)C2)n2nc(C(F)(F)F)cc2n1 [Example 14, (1S,3R)—N^1-(2,5-Bis(trifluoromethyl)pyrazolo[1,5-a]pyrimidin-7-yl)-N^3-(imidazo[1,5-a]pyrazin-8-yl)cyclohexane-1,3-diamine]
IC50 [1]: 0.1 to 100 nM | IC50 [2]: 100 to 1000 nM

Cn1cnc2ccnc(N[C@@H]3CCC[C@H](Nc4cc(C(F)(F)F)nc5cc(C(F)(F)F)nn45)C3)c21 [Example 15, (1S,3R)—N^1-(2,5-Bis(trifluoromethyl)pyrazolo[1,5-a]pyrimidin-7-yl)-N^3-(3-methyl-3H-imidazo[4,5-c]pyridin-4-yl)cyclohexane-1,3-diamine]
IC50 [1]: 0.1 to 100 nM | IC50 [2]: 100 to 1000 nM

FC(F)(F)c1cc(N[C@H]2CCC[C@@H](Nc3nccc4nccn34)C2)n2nc(Br)cc2n1 [Example 16, (1S,3R)—N^1-(2-Bromo-5-(trifluoromethyl)pyrazolo[1,5-a]pyrimidin-7-yl)-N^3-(imidazo[1,2-c]pyrimidin-5-yl)cyclohexane-1,3-diamine]
IC50 [1]: 0.1 to 100 nM | IC50 [2]: 100 to 1000 nM

FC(F)(F)c1cc(N[C@H]2CCC[C@@H](Nc3nccc4nccn34)C2)n2nc(C(F)(F)F)cc2n1 [Example 17, (1S,3R)—N^1-(2,5-Bis(trifluoromethyl)pyrazolo[1,5-a]pyrimidin-7-yl)-N^3-(imidazo[1,2-c]pyrimidin-5-yl)cyclohexane-1,3-diamine]
IC50 [1]: 0.1 to 100 nM | IC50 [2]: 0.1 to 100 nM

FC(F)(F)c1cc(N[C@H]2CCC[C@@H](Nc3nnc4ccccn34)C2)n2nc(C(F)(F)F)cc2n1 [Example 18, (1R,3S)—N^1—([1,2,4]Triazolo[4,3-a]pyridin-3-yl)-N^3-(2,5-bis(trifluoromethyl)pyrazolo[1,5-a]pyrimidin-7-yl)cyclohexane-1,3-diamine]
IC50 [1]: 0.1 to 100 nM | IC50 [2]: 100 to 1000 nM
